Test results taken from ChEMBL document CHEMBL3608294, “Epoxylathyrol Derivatives: Modulation of ABCB1-Mediated Multidrug Resistance in Human Colon Adenocarcinoma and Mouse T-Lymphoma Cells” (J Nat Prod, 2015).

Key:
[1] = molecular target: T1, ATP-dependent translocase ABCB1 (Homo sapiens, UniProt P08183); assay: Inhibition of human ABCB1 expressed in mouse L5178Y cells assessed as fluorescence activity ratio at 2 uM incubated for 10 mins by flow cytometry based rhodamine-123 accumulation assay (reference value: 0.78); type: cell-based
T1 sequence (P08183 whole entry): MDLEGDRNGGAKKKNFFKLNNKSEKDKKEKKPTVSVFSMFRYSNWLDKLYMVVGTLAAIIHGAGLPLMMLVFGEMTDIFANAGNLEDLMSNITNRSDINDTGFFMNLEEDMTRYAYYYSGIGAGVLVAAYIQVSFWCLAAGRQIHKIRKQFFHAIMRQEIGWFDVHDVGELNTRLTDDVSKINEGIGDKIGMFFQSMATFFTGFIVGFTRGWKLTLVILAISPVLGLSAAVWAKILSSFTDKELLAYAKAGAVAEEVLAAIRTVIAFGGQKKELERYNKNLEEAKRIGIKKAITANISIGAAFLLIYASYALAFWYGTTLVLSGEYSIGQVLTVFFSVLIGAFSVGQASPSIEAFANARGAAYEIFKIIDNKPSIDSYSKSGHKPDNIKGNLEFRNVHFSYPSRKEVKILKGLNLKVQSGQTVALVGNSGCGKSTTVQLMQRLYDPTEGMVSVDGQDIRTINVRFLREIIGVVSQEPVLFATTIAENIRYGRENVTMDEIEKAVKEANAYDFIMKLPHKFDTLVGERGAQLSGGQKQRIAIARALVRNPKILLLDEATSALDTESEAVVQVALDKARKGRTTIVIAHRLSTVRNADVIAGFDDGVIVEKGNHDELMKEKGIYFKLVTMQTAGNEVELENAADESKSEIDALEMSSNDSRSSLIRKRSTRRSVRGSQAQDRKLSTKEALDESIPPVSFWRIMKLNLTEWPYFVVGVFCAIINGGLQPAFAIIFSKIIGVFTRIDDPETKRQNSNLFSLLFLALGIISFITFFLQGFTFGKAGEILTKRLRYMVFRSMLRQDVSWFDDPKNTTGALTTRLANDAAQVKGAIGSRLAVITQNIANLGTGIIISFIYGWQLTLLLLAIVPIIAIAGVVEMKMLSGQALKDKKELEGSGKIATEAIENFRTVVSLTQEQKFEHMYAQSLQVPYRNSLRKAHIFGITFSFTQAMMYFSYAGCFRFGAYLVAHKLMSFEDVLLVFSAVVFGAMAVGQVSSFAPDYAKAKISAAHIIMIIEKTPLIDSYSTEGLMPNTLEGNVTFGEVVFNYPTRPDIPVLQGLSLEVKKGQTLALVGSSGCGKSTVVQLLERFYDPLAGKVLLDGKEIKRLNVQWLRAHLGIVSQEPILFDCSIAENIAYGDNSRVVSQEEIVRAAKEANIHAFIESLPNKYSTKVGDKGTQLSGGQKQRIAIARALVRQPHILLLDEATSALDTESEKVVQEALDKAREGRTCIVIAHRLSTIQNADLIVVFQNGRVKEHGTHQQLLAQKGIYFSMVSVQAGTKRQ

[2] = molecular target: T1, ATP-dependent translocase ABCB1; assay: Inhibition of human ABCB1 expressed in mouse L5178Y cells assessed as fluorescence activity ratio at 20 uM incubated for 10 mins by flow cytometry based rhodamine-123 accumulation assay (reference value: 0.78); type: cell-based
[3] = molecular target: T1, ATP-dependent translocase ABCB1; assay: Inhibition of ABCB1 in multidrug resistant human COLO320 cells assessed as fluorescence activity ratio at 2 uM incubated for 10 mins by flow cytometry based rhodamine-123 accumulation assay (reference value: 0.62)
[4] = molecular target: T1, ATP-dependent translocase ABCB1; assay: Inhibition of ABCB1 in multidrug resistant human COLO320 cells assessed as fluorescence activity ratio at 20 uM incubated for 10 mins by flow cytometry based rhodamine-123 accumulation assay (reference value: 0.62)
[5] = molecular target: T1, ATP-dependent translocase ABCB1; assay: Inhibition of human ABCB1 expressed in mouse L5178Y cells assessed as potentiation of 2 mg/ml doxorubicin-induced cytotoxicty at 9:1 compound to doxorubicin ratio incubated for 48 hrs by MTT assay; type: cell-based
L5178Y [6] = assay: Antiproliferative activity against chemosensitive wild type parental mouse L5178Y cells incubated for 72 hrs by MTT assay; type: functional, cell-based
L5178Y [7] = assay: Antiproliferative activity against human ABCB1 expressing mouse L5178Y cells incubated for 72 hrs by MTT assay; type: functional, cell-based
L5178Y [8] = assay: Selectivity index, ratio of antiproliferative IC50 for wild type parental mouse L5178Y cells to antiproliferative IC50 for human ABCB1 expressing mouse L5178Y cells; type: functional
[9] = Antiproliferative activity against chemosensitive human COLO205 cells incubated for 72 hrs by MTT assay; type: functional, cell-based; conditions: COLO 205, 72 h
[10] = Antiproliferative activity against multidrug resistant human COLO320 cells incubated for 72 hrs by MTT assay; type: functional; conditions: COLO 320, 72 h
[11] = Selectivity index, ratio of antiproliferative IC50 for chemosensitive human COLO205 cells to antiproliferative IC50 for multidrug resistant human COLO320 cells; type: functional, COLO 205
L5178Y [12] = assay: Cytotoxicity against chemosensitive wild type parental mouse L5178Y cells incubated for 24 hrs by MTT assay; type: functional, cell-based
L5178Y [13] = assay: Cytotoxicity against human ABCB1 expressing mouse L5178Y cells incubated for 24 hrs by MTT assay; type: functional, cell-based
L5178Y [14] = assay: Selectivity index, ratio of cytotoxic IC50 for wild type parental mouse L5178Y cells to cytotoxic IC50 for human ABCB1 expressing mouse L5178Y cells; type: functional
COLO 205 = assay: Cytotoxicity against chemosensitive human COLO205 cells incubated for 24 hrs by MTT assay; type: functional, cell-based; conditions: COLO 205, 24 h
[15] = Cytotoxicity against multidrug resistant human COLO320 cells incubated for 24 hrs by MTT assay; type: functional, cell-based; conditions: COLO 320, 24 h
[16] = Selectivity index, ratio of cytotoxic IC50 for chemosensitive human COLO205 cells to cytotoxic IC50 for multidrug resistant human COLO320 cells; type: functional, COLO 205
[17] = molecular target: T1, ATP-dependent translocase ABCB1; assay: Inhibition of human ABCB1 expressed in mouse L5178Y cells assessed as fluorescence activity ratio at 0.2 uM incubated for 10 mins by flow cytometry based rhodamine-123 accumulation assay (reference value: 0.78); type: cell-based
[18] = molecular target: T1, ATP-dependent translocase ABCB1; assay: Inhibition of ABCB1 in multidrug resistant human COLO320 cells assessed as fluorescence activity ratio at 0.2 uM incubated for 10 mins by flow cytometry based rhodamine-123 accumulation assay (reference value: 0.62)
[19] = molecular target: T1, ATP-dependent translocase ABCB1; assay: Inhibition of human ABCB1 expressed in mouse L5178Y cells assessed as potentiation of 2 mg/ml doxorubicin-induced cytotoxicty by measuring combination index at 5:1 compound to doxorubicin ratio incubated for 48 hrs by MTT assay; type: cell-based
[20] = molecular target: T1, ATP-dependent translocase ABCB1; assay: Activation of human ABCB1 expressed in Sf9 cell membrane vesicles assessed as inorganic phosphate release at 0.8 uM to 100 uM using MgATP by colorimetric ATPase assay
[21] = molecular target: T1, ATP-dependent translocase ABCB1; assay: Inhibition of human ABCB1 expressed in Sf9 cell membrane vesicles assessed as reduction in verapamil transport at 0.8 uM to 100 uM using MgATP by colorimetric ATPase assay
[22] = molecular target: T1, ATP-dependent translocase ABCB1; assay: Inhibition of human ABCB1 expressed in Sf9 cell membrane vesicles assessed as reduction in verapamil transport at 0.8 uM to 100 uM using MgATP by colorimetric ATPase assay relative to control
[23] = molecular target: T1, ATP-dependent translocase ABCB1; assay: Non-competitive inhibition of human ABCB1 expressed in Sf9 cell membrane vesicles assessed as reduction in verapamil transport at >25 uM using MgATP by colorimetric ATPase assay
[24] = molecular target: T1, ATP-dependent translocase ABCB1; assay: Non-competitive inhibition of human ABCB1 expressed in Sf9 cell membrane vesicles assessed as reduction in vanadate-sensitive ATPase activity at >25 uM using MgATP by colorimetric ATPase assay
[25] = molecular target: T1, ATP-dependent translocase ABCB1; assay: Inhibition of human ABCB1 expressed in mouse L5178Y cells assessed as potentiation of 2 mg/ml doxorubicin-induced cytotoxicty at 7:1 compound to doxorubicin ratio incubated for 48 hrs by MTT assay; type: cell-based

Ratio [1]	Ratio [2]	Ratio [3]	Ratio [4]	Ratio [17]	Ratio [18]	Activity [20]	SMILES	IC50 (L5178Y [6])	IC50 (L5178Y [7])	Ratio IC50 (L5178Y [8])	IC50 [9]	IC50 [10]	Ratio IC50 [11]	IC50 (L5178Y [12])	IC50 (L5178Y [13])	Ratio IC50 (L5178Y [14])	IC50 (COLO 205)	IC50 [15]	Ratio IC50 [16]	CI [19]	other results
33.36	55.43	4.44	12.35	2.47	1.25		COc1ccccc1C(=O)OC[C@]1(C)CC[C@H]2[C@@H](/C=C(\C)C(=O)[C@@]3(O)C[C@H](C)[C@H](OC(=O)c4ccccc4OC)[C@@H]3[C@H]1O)C2(C)C	24.4 µM	31.3 µM	0.78	15.5 µM	17.8 µM	0.87	29.9 µM	38.9 µM	0.77	24.6 µM	25.1 µM	0.99		CI [5]: 0.051
67.06	71.78	9.85	13.97	11.85	6.34	Active	CO[C@H]1[C@@H]2[C@H](CC[C@]3(COC(=O)c4ccccc4)O[C@@H]3[C@H]3[C@@H](OC(=O)c4ccccc4)[C@@H](C)C[C@]3(O)C(=O)[C@@H]1C)C2(C)C	27 µM	27.4 µM	0.99	5.2 µM	6.9 µM	0.76	26.1 µM	32.6 µM	0.8				0.057	inhibition (INH) [21]: Active; inhibition (INH) [22]: 50%
31.06	68.74	8.44	12.16			Active	C/C1=C\[C@@H]2[C@H](CC[C@]3(CO3)[C@H](OC(=O)c3cccs3)[C@H]3[C@@H](OC(=O)c4cccs4)[C@@H](C)C[C@]3(O)C1=O)C2(C)C	26.2 µM	32.4 µM	0.81	18.8 µM	> 100 µM	<0.19	32.8 µM	28.3 µM	1.16	> 100 µM	25.1 µM	>3.99	0.196	inhibition (INH) [23]: Active; inhibition (INH) [24]: Active
0.67	1.61	1.03	1.55				C/C1=C\[C@@H]2[C@H](CC[C@]3(CO3)[C@H](OC(=O)N(C)C)[C@H]3[C@@H](O)[C@@H](C)C[C@]3(O)C1=O)C2(C)C	> 100 µM	> 100 µM		69 µM	69 µM	1	> 100 µM	> 100 µM	>100	41 µM	> 100 µM	<0.41		CI [25]: 0.861
